Measured values: patent publication US8119805B2, “Substituted disulfonamide compounds” (Gruenenthal GmbH, priority 2008, dated 2012)
Counter-ions that a name gives are not always drawn.

Assays:
[1] = target: T1, human B1R receptor (hB1R) (Homo sapiens, UniProt P46663); assay: Functional investigation on the bradykinin 1 receptor (B1R), FLIPR Ca2+ assay, hB1R cells; type: cell-based; details: test substance 10 μM; CHO K1 cells transfected with human B1R gene; Fluo-4 Ca2+ signal; agonist Lys-Des-Arg9-bradykinin at EC80; % of maximum achievable inhibition; read-out: B1R antagonism, human [10 μM] % inhibition
T1 construct: expressed in transfected cells; host or cells: CHO K1 cells
T1 sequence (P46663 1-353): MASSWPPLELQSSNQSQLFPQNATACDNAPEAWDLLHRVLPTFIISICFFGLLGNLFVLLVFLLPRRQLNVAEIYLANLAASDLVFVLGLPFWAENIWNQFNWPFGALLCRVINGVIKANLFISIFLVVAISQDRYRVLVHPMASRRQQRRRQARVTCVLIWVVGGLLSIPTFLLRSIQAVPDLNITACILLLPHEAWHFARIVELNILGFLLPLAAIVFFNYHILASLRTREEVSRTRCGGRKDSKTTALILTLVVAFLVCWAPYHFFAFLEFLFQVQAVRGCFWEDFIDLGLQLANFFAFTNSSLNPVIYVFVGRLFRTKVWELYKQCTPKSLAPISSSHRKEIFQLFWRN
Method in brief: (§1)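 CHO K1 cells stably expressing human or rat B1R, Fluo-4 loaded, read by FLIPR (λex 488, λem 540 nm). Test compound (10 μM) first gave % activation against Lys-Des-[MUT]-bradykinin ≥50 nM (hB1R) or Des-[MUT]-bradykinin 10 μM (rB1R). After 10–20 min, agonist at EC80 was added; % inhibition or IC50 from concentration series, n=2–3, N≥2.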

[2] = target: T2, B1R receptor of the rat (rB1R) (Rattus norvegicus, UniProt P97583); assay: Functional investigation on the bradykinin 1 receptor (B1R), FLIPR Ca2+ assay, rB1R cells; type: cell-based; details: test substance 10 μM; CHO K1 cells transfected with rat B1R gene; Fluo-4 Ca2+ signal; agonist Des-Arg9-bradykinin at EC80; % of maximum achievable inhibition; read-out: B1R antagonism, rat [10 μM] % inhibition
T2 construct: expressed in transfected cells; host or cells: CHO K1 cells
T2 sequence (P97583 1-337): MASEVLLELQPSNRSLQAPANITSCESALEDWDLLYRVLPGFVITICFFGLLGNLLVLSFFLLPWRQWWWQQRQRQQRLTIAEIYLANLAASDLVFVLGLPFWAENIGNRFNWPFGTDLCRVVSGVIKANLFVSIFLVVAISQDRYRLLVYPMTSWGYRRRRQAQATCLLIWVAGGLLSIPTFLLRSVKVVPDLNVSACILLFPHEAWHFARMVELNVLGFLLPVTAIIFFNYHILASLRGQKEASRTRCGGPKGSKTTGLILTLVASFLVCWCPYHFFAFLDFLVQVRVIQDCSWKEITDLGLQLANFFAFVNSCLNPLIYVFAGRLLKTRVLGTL
Method in brief: as §1

Structure (SMILES)	inhibition at 10 µM [1]	inhibition at 10 µM [2]
Cc1cc(S(=O)(=O)N2CCC[C@H]2CCCS(=O)(=O)N2CCC(Oc3ccncc3)CC2)c(C)cc1Cl [Example 53, (S)-4-(1-(3-(1-(4-Chloro-2,5-dimethylphenylsulfonyl)pyrrolidin-2-yl)propylsulfonyl)piperidin-4-yloxy)pyridine]	74%	86%
COc1cc(C)c(S(=O)(=O)N2CCC[C@H]2CCCS(=O)(=O)N2CCC3(CCN(c4ccncc4)CC3)CC2)c(C)c1 [Example 64, 3-(3-((S)-1-(4-Methoxy-2,6-dimethylphenylsulfonyl)pyrrolidin-2-yl)propylsulfonyl)-9-(pyridin-4-yl)-3,9-diazaspiro[5.5]undecane]	99%	99%
O=S(=O)(CCC[C@@H]1CCCN1S(=O)(=O)c1cccc2ccccc12)N1[C@@H]2CC[C@H]1C[C@H](Oc1ccncc1)C2 [Example 58, (1R,3R,5S)-8-(3-((S)-1-(Naphthalen-1-ylsulfonyl)pyrrolidin-2-yl)propylsulfonyl)-3-(pyridin-4-yloxy)-8-azabicyclo[3.2.1]octane]	56%	94%
Cc1cc(S(=O)(=O)N2CCC[C@H]2CCCS(=O)(=O)N2CCN(C3CCN(C)CC3)CC2)c(C)cc1Cl [Example 29, (S)-1-(3-(1-(4-Cloro-2,5-dimethylphenylsulfonyl)pyrrolidin-2-yl)propylsulfonyl)-4-(1-methylpiperidin-4-yl)piperazine]	87%	46%
Cc1cc(F)cc(C)c1S(=O)(=O)N1CCC[C@H]1CCCS(=O)(=O)N1CCC(Oc2ccncc2)CC1 [Example 73, (S)-4-(1-(3-(1-(4-Fluoro-2,6-dimethylphenylsulfonyl)pyrrolidin-2-yl)propylsulfonyl)piperidin-4-yloxy)pyridine]	89%	99%
O=S(=O)(CCC[C@@H]1CCCN1S(=O)(=O)Cc1cccc(Cl)c1)N1CCC(Oc2ccncc2)CC1 [Example 70, (S)-4-(1-(3-(1-(3-Chlorobenzylsulfonyl)pyrrolidin-2-yl)propylsulfonyl)piperidin-4-yloxy)pyridine]	26%	32%
COc1cc(C)c(S(=O)(=O)N2CCCC2CCCCS(=O)(=O)N2CCC(CCN3CCCC3)CC2)c(C)c1C (stereo not shown) [Example 8, 1-(4-(1-(4-Methoxy-2,3,6-trimethylphenylsulfonyl)pyrrolidin-2-yl)butylsulfonyl)-4-(2-(pyrrolidin-1-yl)ethyl)piperidine]	59%	46%
CN1CCC(N2CCN(S(=O)(=O)CCC[C@@H]3CCCN3S(=O)(=O)CC(c3ccccc3)c3ccccc3)CC2)CC1 [Example 33, (S)-1-(3-(1-(2,2-Diphenylethylsulfonyl)pyrrolidin-2-yl)propylsulfonyl)-4-(1-methylpiperidin-4-yl)piperazine]	98%	36%
O=S(=O)(CCC[C@@H]1CCCN1S(=O)(=O)c1ccccc1C(F)(F)F)N1CCC(Oc2ccncc2)CC1 [Example 48, (S)-4-(1-(3-(1-(2-(Trifluoromethyl)phenylsulfonyl)pyrrolidin-2-yl)propylsulfonyl)piperidin-4-yloxy)pyridine]	81%	75%
Cc1cc(C)c(S(=O)(=O)N2CCC[C@@H]2CCCS(=O)(=O)N2CCN(C3CCN(C)CC3)CC2)c(C)c1 [Example 41, (R)-1-(3-(1-(Mesitylsulfonyl)pyrrolidin-2-yl)propylsulfonyl)-4-(1-methylpiperidin-4-yl)piperazine dihydrochloride]	50%	7%
O=S(=O)(CCC[C@@H]1CCCN1S(=O)(=O)c1cccc2c(Cl)cccc12)N1CCC2(CCN(c3ccncc3)CC2)CC1 [Example 76, 3-(3-((S)-1-(5-Chloronaphthalen-1-ylsulfonyl)pyrrolidin-2-yl)propylsulfonyl)-9-(pyridin-4-yl)-3,9-diazaspiro[5.5]undecane]	95%	95%
CN1CCC(N2CCN(S(=O)(=O)CCCCC3CCCN3S(=O)(=O)c3cccc4ccccc34)CC2)CC1 (stereo not shown) [Example 5, 1-(1-Methylpiperidin-4-yl)-4-(4-(1-(naphthalen-1-ylsulfonyl)pyrrolidin-2-yl)butylsulfonyl)piperazine dihydrochloride]	49%	56%
Cc1cccc(Cl)c1S(=O)(=O)N1CCC[C@H]1CCCS(=O)(=O)N1CC(N2[C@@H]3CC[C@H]2C[C@H](Oc2ccncc2)C3)C1 [Example 81, (1R,3s,5S)-8-(1-(3-((S)-1-(2-Chloro-6-methylphenylsulfonyl)pyrrolidin-2-yl)propylsulfonyl)azetidin-3-yl)-3-(pyridin-4-yloxy)-8-azabicyclo[3.2.1]octane]	96%	98%
O=S(=O)(CCC[C@@H]1CCCN1S(=O)(=O)c1ccc2ccccc2c1)N1CCC(Oc2ccncc2)CC1 [Example 49, (S)-4-(1-(3-(1-(Naphthalen-2-ylsulfonyl)pyrrolidin-2-yl)propylsulfonyl)piperidin-4-yloxy)pyridine]	30%	36%
O=S(=O)(CCC[C@@H]1CCCN1S(=O)(=O)c1ccc(C(F)(F)F)cc1Cl)N1CCC(Oc2ccncc2)CC1 [Example 71, (S)-4-(1-(3-(1-(2-Chloro-4-(trifluoromethyl)phenylsulfonyl)pyrrolidin-2-yl)propylsulfonyl)piperidin-4-yloxy)pyridine]	30%	39%
O=S(=O)(CCC1CCN(S(=O)(=O)c2cccc(Cl)c2Cl)C1)N1CCC(CCN2CCCC2)CC1 (stereo not shown) [Example 17, 1-(2-(1-(2,3-Dichlorophenylsulfonyl)pyrrolidin-3-yl)ethylsulfonyl)-4-(2-(pyrrolidin-1-yl)ethyl)piperidine hydrochloride]	58%	12%
Cc1cc(C)c(S(=O)(=O)N2CCCC(CCCS(=O)(=O)N3CCC(CCN4CCCC4)CC3)C2)c(C)c1 (stereo not shown) [Example 11, 1-(Mesitylsulfonyl)-3-(3-(4-(2-(pyrrolidin-1-yl)ethyl)piperidin-1-ylsulfonyl)propyl)piperidine hydrochloride]	65%	26%
